Assay [1] has as its system mitotic marker phospho-histone H3 at serine 10 (pH3 (Ser10)) in transformed BJ cells. The assay can be described thus: Immunoblot analysis of mitotic marker pH3 (Ser10), derivatives of Compound 1. The settings on record: Homo sapiens, band intensities pH3(Ser10)/β-actin vs DMSO control, 24 h. It is filed as cell-based. As to the method:
(§1) FIG. 4 compares the ability of Compound 1 (a131), and various derivatives thereof (referred to using their code numbers for brevity; the designated chemical compound for each code number is provided in the chemical examples section below), to inhibit autophagy and/or mitosis. BJ transformed cells were treated with 5 μM of various Compounds as shown, for 24 h. Cells were harvested and total lysates were analysed by detecting the mitotic marker phospho-histone H3 at serine 10 (pH3 (Ser10)) and the autophagosome marker LC3. Antibodies raised against β-actin were used as an internal loading control.
(§2) The ability of Compound 1 to inhibit lysosome function was examined using immunoblotting. HeLa cervical cancer cells were cultured in Dulbecco's modified Eagle's medium (DMEM) supplemented with 10% Fetal Bovine Serum (FBS, Thermo Scientific). The HeLa cells were treated with different concentrations of Compound 1 (0.625, 1.25, 2.5, 5 and 10 μM, dimethyl sulfoxide (DMSO, Kanto Kagaku)), chloroquine (CQ) (1.25, 2.5, 10, 50 and 100 μM, DMSO) or DMSO for 6 h. Then, the treated cells were harvested and lysed in 1% triton lysis buffer [25 mM Tris HCl (pH8.0), 150 mM NaCl, 1% triton-X100, 1 mM dithiothreitol (DTT), protease inhibitor mix (Complete Mini, Roche) and phosphatase inhibitor (PhosphoStop, Roche)]. The proteins in total lysates were boiled with sample buffer (60 mM Tris-HCl (pH 6.8), 25% glycerol, 2% SDS, 14.4 mM 2-mercaptoethanol, 0.1% bromophenol blue) and resolved by 14% tris-glycine sodium dodecyl sulfate polyacrylamide gel electrophoresis (SDS-PAGE) and subjected to immunoblot analysis.
(§3) Defects in lysosome function and inhibition of autophagy can be measured by accumulation of LC3-phosphatidylethanolamine conjugated non-soluble form (LC3-II), which are converted from soluble LC3-I. Thus, antibodies raised against LC3 (Cell Signaling, Cat#4108) were used to determine lysosomal function and integrity. Antibodies raised against phosphorylated histone H3 at serine 10 residue (pH3) (Cell signaling, Cat#3377) were used as the marker for mitotic dysfunction and arrest. Antibodies raised against β-actin (Millipore, Cat#MAB1501) were used as an internal loading control. The inhibitory ability of Compound 1 was also quantitatively compared to CQ.
(§4) Derivatives of Compound 1 were tested to see if they had similar dual activity, or presented only one of the activities of Compound 1. The protocol for immunoblot analysis described in Biology Example 1 was applied to the additional indicated compounds.
(§5) Activities of compounds were determined by two independent experiments. First, Compounds were classified according to the intensity of increase in each of the mitotic marker phospho-histone H3 at serine 10 (pH3 (Ser 10)) and the autophagosome marker LC3, respectively, at 1.25 μM, when compared with 1.25 μM Compound 1 (a131).
(§6) Compounds classified “++” on either “mitosis” or “inhibits lysosome” show similar increase in each of the mitotic marker phospho-histone H3 at serine 10 (pH3 (Ser10)) and the autophagosome marker LC3, respectively, at 2.5 μM, when compared with 1.25 μM Compound 1 (a131); and compounds classified “+” on either “mitosis” or “inhibits lysosome” show similar increase in each of the mitotic marker phospho-histone H3 at serine 10 (pH3 (Ser10)) and the autophagosome marker LC3, respectively, at a concentration range of 5-10 μM, when compared with 1.25 μM Compound 1 (a131).
Compounds classified “+/−” on either “mitosis” or “inhibits lysosome” show less increase in each of the mitotic marker phospho-histone H3 at serine 10 (pH3 (Ser10)) and the autophagosome marker LC3, respectively, at a concentration range of 5-10 μM, when compared with 1.25 μM Compound 1 (a131).
Next, the ability of Compound 1 and its derivatives to induce mitotic arrest in transformed BJ cells was quantified as the fold induction of band intensities [pH3(Ser10)/β-actin] in comparison with DMSO control. […]
Background: Immunoblotting shows a protein as a band on a membrane.

Assay [2] concerns autophagosome marker LC3 (LC3 II/LC3 I) in transformed BJ cells. The assay can be described thus: Immunoblot analysis of autophagosome marker LC3 (lysosome function), derivatives of Compound 1. The settings on record: Homo sapiens, band intensities LC3 II/LC3 I vs DMSO control, 24 h. It counts as cell-based. As to the method:
as §1, §2, §3, §4, §5, §6
Compounds classified “+/−” on either “mitosis” or “inhibits lysosome” show less increase in each of the mitotic marker phospho-histone H3 at serine 10 (pH3 (Ser10)) and the autophagosome marker LC3, respectively, at a concentration range of 5-10 μM, when compared with 1.25 μM Compound 1 (a131). […]

Assay [3] relates to pH3 (Ser10) and LC3 in BJ transformed cells. The experiment in a line: Immunoblot classification of compounds by pH3 and LC3 (FIG. 4). It counts as cell-based, human. The settings on record: 5 μM, 24 h. As for the experimental part: as §1, §4

SMILES strings stand for the structures.

A word on the fold induction: it is the ratio of treated to control signal. As for `COc1ccc2[nH]cc(/C(C#N)=C/c3cccc4cnccc34)c2c1` [Compound 2, (Z)-3-(isoquinolin-5-yl)-2-(5-methoxy-1H-indol-3-yl)acrylonitrile], the fold induction at 5 µM in assay [1] stood at 3; in assay [2], 3.2. Further, in assay [3], the “Inhibition of lysosome function and/or mitosis (FIG. 4)” value (“Inhibition” below) is “exhibit the dual properties of inhibiting both lysosome function and mitosis”.

`N#C/C(=C\c1cncc2cnccc12)c1c[nH]c2ccccc12` [Compound 4, (Z)-2-(1H-indol-3-yl)-3-(2,7-naphthyridin-4-yl)acrylonitrile]: the values for the fold induction at 5 µM in assay [1] and in assay [2] were 1.4 and 1, respectively.

For `N#C/C(=C\c1cccc2cnccc12)c1c[nH]c2c(Br)cccc12` [Compound 5, (Z)-2-(7-bromo-1H-indol-3-yl)-3-(isoquinolin-5-yl)acrylonitrile], the fold induction at 5 µM in assay [1] was found to be 1.4; in assay [2] it was 2.2.

For the compound `COc1cccc2c(/C(C#N)=C/c3cccc4cnccc34)c[nH]c12` [Compound 6, (Z)-3-(isoquinolin-5-yl)-2-(7-methoxy-1H-indol-3-yl)acrylonitrile], the fold induction at 5 µM amounted to 3.9 in assay [1] and 2.7 in assay [2]. In addition, in assay [3], the “Inhibition” value is “exhibit the dual properties of inhibiting both lysosome function and mitosis”.

Turning to `N#C/C(=C\c1cccc2cnccc12)c1c[nH]c2ccc(Cl)cc12` [Compound 7, (Z)-2-(5-chloro-1H-indol-3-yl)-3-(isoquinolin-5-yl)acrylonitrile], the fold induction at 5 µM worked out at 1.4 in assay [1] and 2 in assay [2]. The “Inhibition” value in assay [3] is given as “inhibit lysosome function only”.

With `N#C/C(=C\c1cccc2cnccc12)c1c[nH]c2ccc(Br)cc12` [Compound 8, (Z)-2-(5-bromo-1H-indol-3-yl)-3-(isoquinolin-5-yl)acrylonitrile], the fold induction at 5 µM amounted to 2.1 in assay [1] and 4 in assay [2]. Besides, the “Inhibition” value in assay [3] is “exhibit the dual properties of inhibiting both lysosome function and mitosis”.

With `COc1ccc2c(/C(C#N)=C/c3cccc4cnccc34)c[nH]c2c1` [Compound 9, (Z)-3-(isoquinolin-5-yl)-2-(6-methoxy-1H-indol-3-yl)acrylonitrile], the fold induction at 5 µM amounted to 4.3 in assay [1] and 2.6 in assay [2]. For the same compound, the “Inhibition” value in assay [3] is “exhibit the dual properties of inhibiting both lysosome function and mitosis”.

As to `N#C/C(=C\c1cccc2cnccc12)c1c[nH]c2cc(Br)ccc12` [Compound 10, (Z)-2-(6-bromo-1H-indol-3-yl)-3-(isoquinolin-5-yl)acrylonitrile], the fold induction at 5 µM in assay [1] is 1.6; in assay [2] it was 0.7.

Take `N#C/C(=C\c1cccc2cnccc12)c1c[nH]c2ccc(OCCC3OCCO3)cc12` [Compound 11, (Z)-2-(5-(2-(1,3-dioxolan-2-yl)ethoxy)-1H-indol-3-yl)-3-(isoquinolin-5-yl)acrylonitrile]: the fold induction at 5 µM in assay [1] worked out at 1; in assay [2], 0.7.

For the compound `COCCOc1ccc2[nH]cc(/C(C#N)=C/c3cccc4cnccc34)c2c1` [Compound 12, (Z)-2-(5-(2-methoxyethoxy)-1H-indol-3-yl)-3-(isoquinolin-5-yl)acrylonitrile], the fold induction at 5 µM in assay [1] amounted to 1.6; in assay [2] it was 3.2. Also, in assay [3], the “Inhibition” value was “inhibit lysosome function only”.

Take `N#C/C(=C\c1cccc2cnccc12)c1c[nH]c2ccc(OCCCN3CCCC3)cc12` [Compound 13, (Z)-2-(5-(3-(pyrrolidin-1-yl)propoxy)-1H-indol-3-yl)-3-(isoquinolin-5-yl)acrylonitrile]: the fold induction at 5 µM in assay [1] stood at 0.9; in assay [2] it was 6. Moreover, in assay [3], the “Inhibition” value was “inhibit lysosome function only”.

For `CC(=O)Nc1ccc2[nH]cc(/C(C#N)=C/c3cccc4cnccc34)c2c1` [Compound 14, N-(3-((Z)-1-cyano-2-(isoquinolin-5-yl)vinyl)-1H-indol-5-yl)acetamide], the fold induction at 5 µM in assay [1] was 1.2; in assay [2], 0.5.

As to `N#C/C(=C\c1cccc2cnccc12)c1c[nH]c2ccc(NC(=O)CCCC[C@@H]3SC[C@@H]4NC(=O)N[C@@H]43)cc12` [Compound 15, N-(3-((Z)-1-cyano-2-(isoquinolin-5-yl)vinyl)-1H-indol-5-yl)-5-((3aS,4S,6aR)-2-oxohexahydro-1H-thieno[3,4-d]imidazol-4-yl)pentanamide], the fold induction at 5 µM in assay [1] was found to be 1.7; in assay [2], 1.1.

In the case of `CC(=O)NCCC(=O)n1cc(/C(C#N)=C/c2cccc3cnccc23)c2ccccc21` [Compound 17, (Z)—N-(3-(3-(1-cyano-2-(isoquinolin-5-yl)vinyl)-1H-indol-1-yl)-3-oxopropyl)acetamide], the values for the fold induction at 5 µM in assay [1] and in assay [2] were 2.8 and 2.3, respectively.

For `N#C/C(=C\c1cccc2cnccc12)c1cn(C(=O)CCCC[C@@H]2SC[C@@H]3NC(=O)N[C@@H]32)c2ccccc12` [Compound 18, (Z)-3-(isoquinolin-5-yl)-2-(1-(5-((3aS,4S,6aR)-2-oxohexahydro-1H-thieno[3,4-d]imidazol-4-yl)pentanoyl)-1H-indol-3-yl)acrylonitrile], the fold induction at 5 µM was 2.2 in assay [1] and 1.7 in assay [2]. Also, the “Inhibition” value in assay [3] is reported as “inhibit mitosis only”.

For `CC(C)(C)OC(=O)N1CCC(C(=O)n2cc(/C(C#N)=C/c3cccc4cnccc34)c3ccccc32)CC1` [Compound 19, (Z)-tert-butyl 4-(3-(1-cyano-2-(isoquinolin-5-yl)vinyl)-1H-indole-1-carbonyl)piperidine-1-carboxylate], the results for the fold induction at 5 µM in assay [1] and in assay [2] were 16.2 and 5.2, respectively. Moreover, the “Inhibition” value in assay [3] was “exhibit the dual properties of inhibiting both lysosome function and mitosis”.

For the compound `CC(C)(C)OC(=O)NCCC(=O)n1cc(/C(C#N)=C/c2cccc3cnccc23)c2ccccc21` [Compound 20, (Z)-tert-butyl (3-(3-(1-cyano-2-(isoquinolin-5-yl)vinyl)-1H-indol-1-yl)-3-oxopropyl)carbamate], the values for the fold induction at 5 µM in assay [1] and in assay [2] were 4.8 and 3.9, respectively. In addition, the “Inhibition” value in assay [3] was “exhibit the dual properties of inhibiting both lysosome function and mitosis”.

Regarding `C(=C\c1c[nH]c2ccccc12)/c1cccc2cnccc12` [Compound 25, 5-((E)-2-(1H-indol-3-yl)vinyl)isoquinoline], the fold induction at 5 µM in assay [1] amounted to 1.3; in assay [2] it was 5.4.

For `O=C(Nc1cccc2cnccc12)c1c[nH]c2ccccc12` [Compound 29, N-(isoquinolin-5-yl)-1H-indole-3-carboxamide], the figures for the fold induction at 5 µM in assay [1] and in assay [2] were 1.4 and 0.4, respectively.

For the origin of these results see patent publication US10308631B2, “Selective anti-cancer compounds” (NATIONAL UNIVERSITY OF SINGAPORE, priority 2015, dated 2019).
